According to patent US20120122928A1 (priority 2010, published 2012):
Marks after values point to notes of the source that are not given here.

Columns and labels:
Phytophthora infestans = assay type: in vivo; conditions: young tomato plants sprayed, active ingredient concentration of 100 (unit not given); inoculated 1 day after treatment; evaluation 7 days after inoculation; 100% = no infection
Plasmopara viticola = experiment: Plasmopara test (grapevine) / protective; assay type: in vivo; conditions: young grapevine plants sprayed, active ingredient concentration 10 ppm; evaluation 6 days after inoculation; 100% = no infection
Method: Plasmopara Test (Grapevine)/Protective
To produce an appropriate active ingredient formulation, 1 part by weight of active ingredient is mixed with the specified amounts of solvent and emulsifier, and the concentrate is diluted with water to the desired concentration.
To test for protective efficacy, young plants are sprayed with the active ingredient formulation at the stated application rate. After the spray coating has dried on, the plants are inoculated with an aqueous spore suspension of Plasmopara viticola and then remain in an incubation cabin at approx. 20° C. and 100% relative air humidity for 1 day. Subsequently, the plants are placed in a greenhouse at approx. 21° C. and approx. 90% air humidity for 4 days. The plants are then moistened and placed in an incubation cabin for 1 day.
Evaluation follows 6 days after the inoculation. 0% means an efficacy which corresponds to that of the control, whereas an efficacy of 100% means that no infection is observed.
In this test, the following inventive compounds show, at an active ingredient concentration of 10 ppm, an efficacy of 70% or more: […]

Peronospora brassicae = experiment: Peronospora test (oilseed rape seeds) / seed treatment; assay type: in vivo; conditions: dose 50 g/dt, 14-day-old plants inoculated, incubated 7 days, infected leaf area, 100% = no disease
Method: Peronospora Test (Oilseed Rape Seeds)/Seed Treatment
The test was conducted under greenhouse conditions.
Oilseed rape seeds treated with an inventive active compound or a combination of inventive active compounds dissolved in N-methyl-2-pyrrolidone and diluted with water to the desired dose were sown in 6*6 cm vessels. The vessels contain 4 cm of a 1:1 mixture of steam-treated field soil and sand. The plants grew at 10° C.
14-day-old plants were inoculated with an aqueous spore suspension of Peronospora brassicae. The vessels containing the plants were incubated in a greenhouse at a temperature of 15° C. and a relative air humidity of 100% for 7 days.
The assessment of the test included the evaluation of the infected leaf area per plant. 0% means an efficiency corresponding to that of the control, while an efficiency of 100% means that no disease is observed.

[1] = LC-MS determination in the acidic range, pH 2.7, 0.1% aqueous formic acid and acetonitrile

Compound	% eff. (Phytophthora infestans) [%]	% eff. (Plasmopara viticola) [%]	% eff. (Peronospora brassicae) [%]	chromatographic logP (physchem; pH 2.7)	chromatographic logP (physchem; pH 7.8)	Log P [a] [1]
O=C(Cn1nc(C(F)F)cc1C(F)F)N1CCC(c2nc(C3=NOC(COc4ccccc4)C3)cs2)CC1 (stereo not drawn) [I-2, 2-[3,5-Bis(difluoromethyl)-1H-pyrazol-1-yl]-1-(4-{4-[5-(phenoxymethyl)-4,5-dihydro-1,2-oxazol-3-yl]-1,3-thiazol-2-yl}piperidin-1-yl)ethanone]	100	97	95	3.22	3.25	
O=C(Cn1nc(C(F)F)cc1C(F)F)N1CCC(c2nc(C3=NOC(COc4c(Br)cccc4Br)C3)cs2)CC1 (stereo not drawn) [I-36]	100	100	78			3.9
O=C(Cn1nc(C(F)F)cc1C(F)F)N1CCC(c2nc(C3=NOC(COc4c(F)cccc4F)C3)cs2)CC1 (stereo not drawn) [I-43, 2-[3,5-Bis(difluoromethyl)-1H-pyrazol-1-yl]-1-[4-(4-{5-[(2,6-difluorophenoxy)methyl]-4,5-dihydro-1,2-oxazol-3-yl}-1,3-thiazol-2-yl)piperidin-1-yl]ethanone]	95	100	98	3.3	3.23	
FC(F)c1cc(C(F)F)n(CC(=S)N2CCC(c3nc(C4=NOC(C(F)(F)c5ccccc5)C4)cs3)CC2)n1 (stereo not drawn) [I-31, 2-[3,5-Bis(difluoromethyl)-1H-pyrazol-1-yl]-1-[4-(4-{5-[difluoro(phenyl)methyl]-4,5-dihydro-1,2-oxazol-3-yl}-1,3-thiazol-2-yl)piperidin-1-yl]ethanethione]	100	85		3.88		
O=C(Cn1nc(C(F)F)cc1C(F)F)N1CCC(c2nc(C3=NOC(COc4ccccc4F)C3)cs2)CC1 (stereo not drawn) [I-3]	100	100	98			3.19
COC(c1ccccc1)C1CC(c2csc(C3(F)CCN(C(=O)Cn4nc(C(F)F)cc4C(F)F)CC3)n2)=NO1 (stereo not drawn) [I-15, 2-[3,5-Bis(difluoromethyl)-1H-pyrazol-1-yl]-1-[4-fluoro-4-(4-{5-[methoxy(phenyl)methyl]-4,5-dihydro-1,2-oxazol-3-yl}-1,3-thiazol-2-yl)piperidin-1-yl]ethanone]	95			3.56		
O=C(Cn1nc(C(F)F)cc1C(F)F)N1CCC(c2nc(C3=NOC(C(F)(F)c4ccccc4)C3)cs2)CC1 (stereo not drawn) [I-9, 2-[3,5-Bis(difluoromethyl)-1H-pyrazol-1-yl]-1-[4-(4-{5-[difluoro(phenyl)methyl]-4,5-dihydro-1,2-oxazol-3-yl}-1,3-thiazol-2-yl)piperidin-1-yl]ethanone]	100	100	97	3.41		
CC(O)(c1c(F)cccc1F)C1CC(c2csc(C3CCN(C(=O)Cn4nc(C(F)F)cc4C(F)F)CC3)n2)=NO1 (stereo not drawn) [I-47]	93	95				3.03
Cc1cc(C(F)(F)F)nn1CC(=O)N1CCC(c2nc(C3=NOC(COc4c(F)cccc4Cl)C3)cs2)CC1 (stereo not drawn) [I-46]	95	98				3.54
O=C(Nc1cc(C(F)F)ccc1C(F)F)N1CCC(c2nc(C3=NOC(C(F)c4ccccc4)C3)cs2)CC1 (stereo not drawn) [I-24]	100	94				3.41^[a]
Cc1ccc(Cl)cc1NC(=O)N1CCC(c2nc(C3=NOC(COc4c(F)cccc4Cl)C3)cs2)CC1 (stereo not drawn) [I-51]	95	93				3.81
Cc1cc(C(F)(F)F)nn1CC(=O)N1CCC(c2nc(C3=NOC(C(F)c4c(F)cccc4F)C3)cs2)CC1 (stereo not drawn) [I-20]	95	93				3.48^[a]
CC(C)(c1c(F)cccc1F)C1CC(c2csc(C3CCN(C(=O)Nc4cc(C(F)F)ccc4C(F)F)CC3)n2)=NO1 (stereo not drawn) [I-68]	94	96				4.29
O=C(Cc1cc(Cl)ccc1Cl)N1CCC(c2nc(C3=NOC(COc4ccccc4)C3)cs2)CC1 (stereo not drawn) [I-23]	95	89				3.89
COc1cccc(C=O)c1OCC1CC(c2csc(C3CCN(C(=O)Cn4nc(C(F)F)cc4C(F)F)CC3)n2)=NO1 (stereo not drawn) [I-72]	95	81				3.02
O=C(Nc1cc(C(F)F)ccc1C(F)F)N1CCC(c2nc(C3=NOC(C(F)(F)c4ccccc4)C3)cs2)CC1 (stereo not drawn) [I-16, N-[2,5-Bis(difluoromethyl)phenyl]-4-(4-{5-[difluoro(phenyl)methyl]-4,5-dihydro-1,2-oxazol-3-yl}-1,3-thiazol-2-yl)piperidine-1-carboxamide]	100	87		3.64		
O=C(Cn1nc(C(F)F)cc1C(F)F)N1CCC(c2nc(-c3cc(COc4ccccc4)on3)cs2)CC1 [I-44]	95	100				3.63
CC(C)(c1c(F)cccc1Cl)C1CC(c2csc(C3CCN(C(=O)Cn4nc(C(F)F)cc4C(F)F)CC3)n2)=NO1 (stereo not drawn) [I-69]	94	95				4.32
Cc1cc(C(F)(F)F)nn1CC(=O)N1CCC(c2nc(C3=NOC(COc4c(Cl)cccc4Cl)C3)cs2)CC1 (stereo not drawn) [I-65]	84	100				3.9
Cc1ccc(C)c(NC(=S)N2CCC(c3nc(C4=NOC(C(F)(F)c5ccccc5)C4)cs3)CC2)c1 (stereo not drawn) [I-21]	95	85				3.86^[a]
Cc1cc(C(F)(F)F)nn1CC(=O)N1CCC(c2nc(C3=NOC(C(F)c4ccccc4)C3)cs2)CC1 (stereo not drawn) [I-19]	100	94				3.3^[a]
Fc1cccc(F)c1C(F)(F)C1CC(c2csc(C3CCN(C(=S)Cn4nc(C(F)F)cc4C(F)F)CC3)n2)=NO1 (stereo not drawn) [I-42]	95	100				3.94^[a]
O=C(Nc1cc(C(F)F)ccc1C(F)F)N1CCC(c2nc(C3=NOC(C(F)(F)c4c(F)cccc4F)C3)cs2)CC1 (stereo not drawn) [I-35]	95	100				3.61^[a]
O=C(CCC1CC(c2csc(C3CCN(C(=O)Cn4nc(C(F)F)cc4C(F)F)CC3)n2)=NO1)c1ccccc1 (stereo not drawn) [I-6]	100	96				3.16
Cc1ccc(Cl)cc1NC(=O)N1CCC(c2nc(C3=NOC(COc4c(Cl)cccc4Cl)C3)cs2)CC1 (stereo not drawn) [I-59]	94	100				4.08^[a]; 4.08^[b]
O=C(Cn1nc(C(F)F)cc1C(F)F)N1CCC(c2nc(C3=NOC(CSc4ccccc4)C3)cs2)CC1 (stereo not drawn) [I-10]	100	93				3.46
